Results: US4965280A, “Antifungal carbinols” (E. I. Du Pont de Nemours and Company, priority 1989, dated 1990)

Legend:
[1] = test system: REDROOT PIGWEED; test: Test E; assay type: in vivo, Amaranthus retroflexus
[2] = test system: LADY SMARTWEED; test: Test E; assay type: in vivo, Polygonum persicaria
Description: Seeds of the following crops and weeds are sown into 15 cm pots containing Sassafras sandy loam soil: wheat (Triticum aestivum cv. Park), barley (Hordeum vulgare cv. Bonanza), sugarbeet (Beta vulgaris cv. USH-11), rapeseed (Brassica napus cv. Jet Neuf), black nightshade (Solanum nigrum), chickweed (Stellaria media), lambsquarter (Chenopodium album), Galium aparine, knotweed (Polygonum aviculare), Kochia scoparia, Matricaria indora, redroot pigweed (Amaranthus retroflexus), smartweed (Polygonum persicaria), speedwell (Veronica persica), wild buckwheat (Polygonum convolvulus), wild mustard (Brassica spp.), wild radish (Raphanus raphanistrum), annual bluegrass (PO annua), annual ryegrass (Lolium multiflorum), blackgrass (Alopercurus mysuroides), green foxtail (Setaria viridis), and wild oats (Avena fatua). Compounds are formulated in a nonphytotoxic solvent and applied to the plants as a foliar spray or applied to the soil surface. Plants are treated at two stages: preemergence, or postemergence when the sugarbeets are at the 2-3 true leaf stage. Plants are grown in a temperature-controlled greenhouse for the duration of the test.
Weed control and crop injury are evaluated visually at 3-4 weeks after compound application, using a scale of 0 to 100%, where 0=no injury and 100=complete death of the plant. All plants are rated with respect to untreated plants (checks) grown in the greenhouse under identical conditions to the treated plants.

[3] = test system: PERSN SPEEDWELL; test: Test E; assay type: in vivo, Veronica persica
[4] = test system: WILD BUCKWHEAT; test: Test E; assay type: in vivo, Polygonum convolvulus
[5] = test system: WILD RADISH; test: Test E; assay type: in vivo, Raphanus raphanistrum
[6] = test system: G4646 CORN; test: Test D Corn and Sorghum Herbicide Test; assay type: in vivo, Zea mays
[7] = test system: GREEN FOXTAIL; test: Test D; assay type: in vivo, Setaria viridis
[8] = test system: GIANT FOXTAIL; test: Test D; assay type: in vivo, Setaria faberii
[9] = test system: FALL PANICUM; test: Test D; assay type: in vivo, Panicum dichotomiflorum
[10] = test system: BARNYARDGRASS; test: Test D; assay type: in vivo, Echinochloa crus-galli
Experimental: (§1) The Corn and Sorghum Herbicide Test included the following species in both the preemergence and postemergence evaluations:
(§2) Postemergence plantings were grown in Sassafras sandy loam soil. Corn and soybeans were grown in separate 25 cm diameter containers. Sorghum and the seven grass weed species were grown in two 18 cm diameter containers, 4 species per container. The seven broadleaf weed species were also grown in two 18 cm diameter containers, 4 species in one container, 3 species in the second container. One additional planting of corn in an 18 cm diameter container was made. The soil surface of this additional container of corn was covered with the absorbent, perlite, before spray treatment so that test chemicals would enter the plant only via the foliage. The plants were grown 10-21 days, dependent upon the species and then sprayed postemergence with the test chemicals dissolved in a nonpytotoxic solvent.
(§3) Preemergence plantings were grown in fertilized Tama silt loam soil. These plantings are identical to those described in the postemergence section, with the exception of the corn planting having perlite covering the soil surface. These plantings were made the day of or the day before spraying the test chemicals dissolved in a nonphytotoxic solvent.
(§4) Treated plants and controls were maintained in the greenhouse for 2 to 4 weeks. Visual planting response ratings were made on a percentage scale of 0 to 100 in comparison with a control where 0=no injury, and 100=death.

[11] = test system: G522 SORGHUM; test: Test D; assay type: in vivo, Sorghum bicolor
[12] = test system: PURPLE NUTSEDGE; test: Test D; assay type: in vivo, Cyperus rotundus
[13] = test system: VELVETLEAF; test: Test D; assay type: in vivo, Abutilon theophrasti
Experimental: as §1, §2, §3, §4

[14] = test system: COCKLEBUR; test: Test D; assay type: in vivo, Xanthium pensylvanicum
[15] = test system: LAMBSQUARTER; test: Test D; assay type: in vivo, Chenopodium album

C=C(c1ccc(F)cc1)C(O)(Cn1cncn1)c1ccc(F)cc1F (stereo not drawn) [Example 4, 2-(2,4-Difluorophenyl)-3-(4-fluorophenyl)-1-(1H-1,2,4-triazol-1-yl)-3-buten-2-ol]
plant response ([1]; POSTEMERGENCE 0064 GM/HA): 20%
plant response ([1]; POSTEMERGENCE 0125 GM/HA): 40%
plant response ([1]; POSTEMERGENCE 0250 GM/HA): 90%
plant response ([1]; POSTEMERGENCE 0500 GM/HA): 90%
plant response ([1]; PREEMERGENCE 0500 GM/HA): 100%
plant response ([2]; PREEMERGENCE 0500 GM/HA): 100%
plant response ([3]; POSTEMERGENCE 0064 GM/HA): 20%
plant response ([3]; POSTEMERGENCE 0125 GM/HA): 70%
plant response ([3]; POSTEMERGENCE 0250 GM/HA): 100%
plant response ([3]; POSTEMERGENCE 0500 GM/HA): 100%
plant response ([3]; PREEMERGENCE 0500 GM/HA): 90%
plant response ([4]; POSTEMERGENCE 0064 GM/HA): 0%
plant response ([4]; POSTEMERGENCE 0125 GM/HA): 0%
plant response ([4]; POSTEMERGENCE 0250 GM/HA): 40%
plant response ([4]; POSTEMERGENCE 0500 GM/HA): 70%
plant response ([4]; PREEMERGENCE 0500 GM/HA): 40%
plant response ([5]; POSTEMERGENCE 0064 GM/HA): 20%
plant response ([5]; POSTEMERGENCE 0125 GM/HA): 60%
plant response ([5]; POSTEMERGENCE 0250 GM/HA): 80%
plant response ([5]; POSTEMERGENCE 0500 GM/HA): 90%
plant response ([5]; PREEMERGENCE 0500 GM/HA): 50%

C=C(c1ccc(F)cc1)C(O)(Cn1cncn1)c1ccccc1F (stereo not drawn) [Example 644]
plant response ([1]; POSTEMERGENCE 0064 GM/HA): 50%
plant response ([1]; POSTEMERGENCE 0125 GM/HA): 50%
plant response ([1]; POSTEMERGENCE 0250 GM/HA): 50%
plant response ([1]; POSTEMERGENCE 0500 GM/HA): 60%
plant response ([1]; PREEMERGENCE 0500 GM/HA): 80%
plant response ([2]; POSTEMERGENCE 0064 GM/HA): 0%
plant response ([2]; POSTEMERGENCE 0125 GM/HA): 100%
plant response ([2]; POSTEMERGENCE 0250 GM/HA): 100%
plant response ([2]; POSTEMERGENCE 0500 GM/HA): 100%
plant response ([3]; POSTEMERGENCE 0064 GM/HA): 0%
plant response ([3]; POSTEMERGENCE 0125 GM/HA): 20%
plant response ([3]; POSTEMERGENCE 0250 GM/HA): 40%
plant response ([3]; POSTEMERGENCE 0500 GM/HA): 80%
plant response ([3]; PREEMERGENCE 0500 GM/HA): 50%
plant response ([4]; POSTEMERGENCE 0064 GM/HA): 0%
plant response ([4]; POSTEMERGENCE 0125 GM/HA): 0%
plant response ([4]; POSTEMERGENCE 0250 GM/HA): 0%
plant response ([4]; POSTEMERGENCE 0500 GM/HA): 0%
plant response ([4]; PREEMERGENCE 0500 GM/HA): 30%
plant response ([5]; POSTEMERGENCE 0064 GM/HA): 20%
plant response ([5]; POSTEMERGENCE 0125 GM/HA): 30%
plant response ([5]; POSTEMERGENCE 0250 GM/HA): 50%
plant response ([5]; POSTEMERGENCE 0500 GM/HA): 80%
plant response ([5]; PREEMERGENCE 0500 GM/HA): 0%

C=C(c1ccccc1)C(O)(Cn1cncn1)c1ccc(Cl)cc1Cl (stereo not drawn) [Example 50, 2-(2,4-Dichlorophenyl)-3-phenyl-1-(1H-1,2,4-triazol-1-yl)-3-buten-2-ol]
plant response ([6]; POSTEMERGENCE 0250 GM/HA): 0%
plant response ([6]; POSTEMERGENCE 0500 GM/HA): 20%
plant response ([6]; PREEMERGENCE 0064 GM/HA): 0%
plant response ([6]; PREEMERGENCE 0125 GM/HA): 0%
plant response ([6]; PREEMERGENCE 0250 GM/HA): 0%
plant response ([6]; PREEMERGENCE 0500 GM/HA): 0%
plant response ([7]; POSTEMERGENCE 0250 GM/HA): 0%
plant response ([7]; POSTEMERGENCE 0500 GM/HA): 0%
plant response ([7]; PREEMERGENCE 0064 GM/HA): 0%
plant response ([7]; PREEMERGENCE 0125 GM/HA): 30%
plant response ([7]; PREEMERGENCE 0250 GM/HA): 50%
plant response ([7]; PREEMERGENCE 0500 GM/HA): 85%
plant response ([8]; POSTEMERGENCE 0250 GM/HA): 0%
plant response ([8]; POSTEMERGENCE 0500 GM/HA): 0%
plant response ([8]; PREEMERGENCE 0064 GM/HA): 20%
plant response ([8]; PREEMERGENCE 0125 GM/HA): 65%
plant response ([8]; PREEMERGENCE 0250 GM/HA): 75%
plant response ([8]; PREEMERGENCE 0500 GM/HA): 85%
plant response ([9]; POSTEMERGENCE 0250 GM/HA): 20%
plant response ([9]; POSTEMERGENCE 0500 GM/HA): 35%
plant response ([9]; PREEMERGENCE 0064 GM/HA): 20%
plant response ([9]; PREEMERGENCE 0125 GM/HA): 35%
plant response ([9]; PREEMERGENCE 0250 GM/HA): 60%
plant response ([9]; PREEMERGENCE 0500 GM/HA): 95%
plant response ([10]; POSTEMERGENCE 0250 GM/HA): 0%
plant response ([10]; POSTEMERGENCE 0500 GM/HA): 0%
plant response ([10]; PREEMERGENCE 0064 GM/HA): 0%
plant response ([10]; PREEMERGENCE 0125 GM/HA): 0%
plant response ([10]; PREEMERGENCE 0250 GM/HA): 20%
plant response ([10]; PREEMERGENCE 0500 GM/HA): 45%
plant response ([11]; POSTEMERGENCE 0250 GM/HA): 0%
plant response ([11]; POSTEMERGENCE 0500 GM/HA): 0%
plant response ([11]; PREEMERGENCE 0064 GM/HA): 0%
plant response ([11]; PREEMERGENCE 0125 GM/HA): 0%
plant response ([11]; PREEMERGENCE 0250 GM/HA): 0%
plant response ([11]; PREEMERGENCE 0500 GM/HA): 0%
plant response ([12]; POSTEMERGENCE 0250 GM/HA): 0%
plant response ([12]; POSTEMERGENCE 0500 GM/HA): 0%
plant response ([12]; PREEMERGENCE 0064 GM/HA): 0%
plant response ([12]; PREEMERGENCE 0125 GM/HA): 0%
plant response ([12]; PREEMERGENCE 0250 GM/HA): 0%
plant response ([12]; PREEMERGENCE 0500 GM/HA): 30%
plant response ([13]; POSTEMERGENCE 0250 GM/HA): 0%
plant response ([13]; POSTEMERGENCE 0500 GM/HA): 25%
plant response ([13]; PREEMERGENCE 0064 GM/HA): 0%
plant response ([13]; PREEMERGENCE 0125 GM/HA): 25%
plant response ([13]; PREEMERGENCE 0250 GM/HA): 40%
plant response ([13]; PREEMERGENCE 0500 GM/HA): 65%
plant response ([14]; POSTEMERGENCE 0250 GM/HA): 25%
plant response ([14]; POSTEMERGENCE 0500 GM/HA): 40%
plant response ([14]; PREEMERGENCE 0064 GM/HA): 0%
plant response ([14]; PREEMERGENCE 0125 GM/HA): 0%
plant response ([14]; PREEMERGENCE 0250 GM/HA): 0%
plant response ([14]; PREEMERGENCE 0500 GM/HA): 25%
plant response ([15]; POSTEMERGENCE 0250 GM/HA): 65%
plant response ([15]; POSTEMERGENCE 0500 GM/HA): 80%
plant response ([15]; PREEMERGENCE 0064 GM/HA): 0%
plant response ([15]; PREEMERGENCE 0125 GM/HA): 35%
plant response ([15]; PREEMERGENCE 0250 GM/HA): 75%
plant response ([15]; PREEMERGENCE 0500 GM/HA): 90%
